# Experimental data published in patent US7078585B1, “Bacterial cell component-unresponsive model mouse” (Japan Science and Technology Agency, priority 1999, dated 2006).
# “Also recorded” adds a separate entry of the source. Like-named read-outs stand apart in the source and are kept apart here.
# B1: IL-4: IL-4 (Genzyme), cytokine (protein, UniProt P05112 25-153, looked up)
# Interleukin-4: HKCDITLQEIIKTLNSLTEQKTLCTELTVTDIFAASKNTTEKETFCRAATVLRQFYSHHEKDTRCLGATAQQFHRHKQLIRFLKRLDRNLWGLAGLNSCPVKEANQSTLENFLERLKTIMREKYSKCSS
# B2: IFN-γ: IFN-γ (Genzyme), cytokine (protein, UniProt P01579 24-161, looked up)
# Interferon gamma: QDPYVKEAENLKKYFNAGHSDVADNGTLFLGILKNWKEESDRKIMQSQIVSFYFKLFKNFKDDQSIQKSVETIKEDMNVKFFNSNKKKRDDFEKLTNYSVTDLNVQRKAIHELIQVMAELSPAAKTGKRKRSQMLFRG
# Legend:
# thymocytes = experiment: Thymocyte (T cell) proliferation with IL-1 costimulation ([3H]thymidine); assay type: cell-based, mouse; conditions: 100 U/ml with PHA, ConA or IL-2, 72 hours
# Excerpt: Proliferation of T cells were examined by measuring [^3H] amount of [^3H] thymidine taken into the cells.
# mice = experiment: IL-1-induced acute phase protein mRNA in liver and serum TNF-α/IL-6 after intravenous injection; assay type: in vivo, mouse; conditions: 1 μg intravenously, 2 hours
# Procedure: MyD88 knockout mice of the present invention were intravenously injected with 1 μg of […] (Genzyme), and 2 hours later liver and sera were taken. Total RNA was extracted from the liver using Trizol reagent (GIBCO). This RNA (10 μg) was electrophoresed and transferred to a nylon membrane, then Northern blot analysis was conducted with ^32P-labelled cDNA for acute phase proteins such as serum amyloid A (SAA-I), serum amyloid P(SAP), and haptoglobin (HP).
# Because IL-1 induces production of […], increase of TNF-α and IL-6 concentrations in serum taken from MyD88 knockout mice of the present invention and wild-type littermates by the above-stated method were measured by ELISA.
# AP-1 = experiment: AP-1-dependent reporter activity after IL-18 treatment; assay type: cell-based; conditions: stimulation with IL-18
# Procedure: Next, it was examined whether the dominant negative MyD88 mutant blocked IL-18-induced NF-κB activation as well. COS-7 cells were transiently transfected with MyD88 (amino acid 152–296) expression vector together with NF-κB-dependent luciferase reporter gene, and luciferase activity after IL-18 treatment was measured. Coexpression of MyD88 blocked IL-18-induced activation almost completely (see FIG. 7).
# Because IL-18 activates AP-1-dependent gene information, whether MyD88 (amino acid 152–296) also acted as a dominant negative mutant of IL-18-induced AP-1 activation was investigated. Stimulation with IL-18-induced an approximately 3- to 4-fold increase in AP-1 activity, and this activation was blocked by coexpression of MyD88 (amino acid 152–296) (see FIG. 7).
# YAC-1 targeting cells = experiment: NK lytic activity against 51Cr-labelled YAC-1 target cells; assay type: cell-based, mouse; conditions: 24 hours
# Procedure: It has been well known that IL-18 enhances lytic activity of NK cells. Splenic […] from MyD88 knockout mice of the present invention and wild-type littermates were cultured in the presence or absence of 20 ng/ml of IL-18 (Hayashibara Biochemical Laboratories, Inc.) for 24 hours with ^51Cr-labelled mouse lymphoma cells (hereinafter “YAC-1”) targeting cells. 4 hours later, released ^51Cr in supernatants were counted by a gamma counter.
# splenic T cells = experiment: IFN-γ production by splenic cells / splenic T cells (ELISA); assay type: cell-based, mouse; conditions: 20 ng/ml, 24 hours
# Procedure: Further, splenic B cells of MyD88 knockout mice of the present invention and their wild-type littermates were stimulated by 20 ng/ml of IL-18 and cultured for 24 hours in vitro, then production of IFN-γ in culture supernatants was measured by ELISA.
# Splenic T cells of MyD88 knockout mice of the present invention and their wild-type littermates, which were purified to 95% or over, were cultured on anti-CD3 antibody (20 μg/ml)(PharMingen)-coated plates in the presence of 2 ng/ml IL-12. 4 days after the onset of culture, cells were harvested and washed with Hanks' balanced salt solution. The washed cells (2×10^5) were stimulated and cultured again on anti-CD3 antibody (20 μg/ml)-coated 96-well plates for 24 hours with 20 ng/ml of IL-18 or 2 ng/ml of IL-12. Concentration of IFNγ in culture supernatants was determined by ELISA and compared.
# MyD88 knockout mice of the present invention and their wild-type littermates were intraperitoneally injected with 500 μg of heat-killed Propionibacterium acnes (P. acnes). […] Concentration of IFN-γ in culture supernatants was determined by ELISA. […] 14 days after injection, T cells were purified from spleen, then cultured and stimulated for 24 hours, as described above, subsequently concentration of IFN-γ was measured.
# NF-κB = NF-κB DNA binding activity (electrophoretic / gel mobility shift assay); assay type: cell-based, mouse
# Procedure: Splenic T cells cultured in the presence of IL-12 and anti-CD3 antibody for 4 days were starved for 3 hours and then stimulated with IL-18. Nuclei extracted from the stimulated cells were analyzed by a gel mobility shift assay using a specific probe containing NF-κB binding site.
# NF-κB activation in response to LPS or PGN was also investigated. Macrophages of various kinds of mouse were stimulated with said LPS or PGN, then nuclear extracts from the macrophages were purified and incubated with a probe specific to DNA binding site of NF-κB, and visualized by electrophoretic mobility shift assay as described previously (Immunity 9, 143–150, 1998). The results are shown in FIGS. 21C and D. Arrows in FIGS. 21C and D indicate the position of a complex comprised of NF-κB and the specific probe, and arrowheads indicate the position of specific probe only.
# (§1) In order to examine whether a lipoprotein/lipopeptide activates intracellular signaling molecules with the results of example 16, peritoneal macrophages of the 4 kinds of mouse (1×10^6) were stimulated with 0.3 ng/ml of R-MALP-2 for 10 minutes, and in vitro kinase assay (Auto in FIG. 25A), Western blot analysis (WB in FIG. 25A), electrophoretic mobility shift assay (FIG. 25B) were conducted with anti-IRAK antibody as in example 12. In addition, in vitro kinase assay (Auto in FIG. 25C) and Western blot analysis (WB in FIG. 25C) with anti-JNK1 antibody were also conducted.
# JNK = JNK activation (in vitro kinase assay); assay type: cell-based, mouse
# Procedure: In addition to induction of NF-κB activation, IL-1 is also known to activate c-Jun N-terminal kinase (JNK). To test whether IL-18 induces JNK activation, an in vitro kinase assay was carried out using GST-c-Jun-fusion protein as a […]. […] IL-18-induced NF-κB and JNK activation was impaired in MyD88-deficient mice.
# as §1
# peritoneal macrophages [1] = experiment: TNF-α production by stimulated peritoneal macrophages (ELISA); assay type: cell-based, mouse
# peritoneal macrophages [2] = experiment: IL-6 (ELISA) and NO2^− (Greiss method) production by peritoneal macrophages; assay type: cell-based, mouse; conditions: for production of IL-6: 24 hours; for production of NO2^−: in the presence of IFN-γ (30 unit/ml)
# Procedure: Each of TLR2 knockout (TLR2−/−), TLR4 knockout (TLR4−/−) and wild-type (wild-type) mice were intraperitoneally injected with 2 ml of 4% thioglycollate medium (DIFCO). Three days later, peritoneal exudate cells were isolated from the peritoneal cavity of each mouse. These cells were cultured in RPMI1640 medium (GIBCO) supplemented with 10% fetal bovine serum (GIBCO) for 2 hours at 37° C. and washed with ice-cold Hank's buffered salt solution (HBSS; GIBCO) to remove nonadherent cells. Adherent cells were used as peritoneal macrophages for following experiments.
# Synthetic lipid A, which was soluble in endotoxin-free water and containing 0.025% of triethylamine, was used as said synthetic lipid A. After the culture, production amounts of IL-6 (FIG. 17A), TNF-α (FIG. 17B) and NO2^− (FIG. 17C) in culture supernatants were measured. Production amount of IL-6 was measured by enzyme-linked immunosorbent assay (ELISA; ENDOGEN), and that of TNF-α was measured by ELSIA, according to manufacturer (Genzyme)'s instructions, and that of NO2^31 was measured by the Greiss method using NO2/NO3 Assay Kit (Dojindo Laboratories).
# splenic B cells = experiment: MHC class II (I-A^b) expression on splenic B cells (flow cytometry); assay type: cell-based, mouse; conditions: 48 hours
# Procedure: The expression of major histocompatibility complex (MHC) class II (I-A^b molecule) on the surface of splenic B cells in response to Re-595LPS was examined by flow cytometry. Splenic B cells (1×10^6) from each of the wild-type, MyD88- and TLR4-deficient mice were cultured for 48 hours in the presence of various concentrations (0, 0.01, 0.1, 1, 10 or 100 μg/ml) of LPS. After the culture, the cells were collected and then stained by combining I-A^b molecule on the surface of the cells and FITC-labelled antibody which is constructed by combining phycoerythrin (PE; PharMingen)-conjugated anti-B220 antibody or biotinylated anti-mouse I-A^b antibody (PharMingen) and fluorescein […] (FITC; PharMingen)-conjugated streptavidin. The stained cells were analyzed on fluorescence-activated cell sorter Calibur (FACS Calibur) using CELLQuest software (Becton Dickinson).
# Next, Splenic B cells (1×10^6) from each of the wild-type, MyD88- and TLR4-deficient mice were cultured for 48 hours in the presence or absence of 100 U/ml of IL-4, and then stimulated. Subsequently, the cells were stained by combining I-A^b molecule on the surface of the splenic B cells and PE-conjugated anti-B220 antibody or FITC-conjugated anti-mouse I-A^b antibody. The cell proliferation was measured on fluorescence-activated cell sorter Calibur using CELLQuest software (see FIG. 9B).
# In addition, the expression of major histocompatibility complex (MHC) class II (I-A^b) on the surface of B cells in response to Re-595 LPS was examined by flow cytometry. Splenic B cells (1×10^5) of each of wild-type, TLR2 knockout (2−/−) and TLR4 knockout (4−/−) mice were isolated and cultured for 48 hours in 96-well plates with various concentrations (0, 10^1, 10^2, 10^3, 10^4 or 10^5 ng/ml) of LPS or 100 U/ml of IL-4. […] The stained cells were analyzed on fluorescence-activated cell sorter Calibur (FACS Calibur) using CELLQuest software (Becton Dickinson) (FIG. 18B).
# peritoneal macrophages [3] = experiment: I-A^b expression in peritoneal macrophages after intraperitoneal IFN-γ; assay type: in vivo, mouse; conditions: 5000 U intraperitoneally, three days after injection
# Excerpt: Each of wild-type, MyD88- and TLR4-deficient mice were intraperitoneally injected with 5000 U of IFN-γ (Genzyme) or PBS. Three days after injection, peritoneal macrophages were collected and stained by combining I-A^b molecule on the surface of the macrophage membranes and FITC-conjugated anti-mouse I-A^b antibody, then analyzed by fluorescence-activated cell sorter Calibur using CELLQuest software (see FIG. 9C).
# [4] = nuclear extracts of wild-type cells
# [5] = peritoneal macrophages of TLR2 knockout mice
# [6] = peritoneal macrophages of wild-type mice
molecule,measurement,setting,value
"IL-1β: IL-1β (Genzyme), cytokine",proliferation of thymocytes,thymocytes; MyD88 knockout mice,almost no enhanced proliferation
same,proliferation of thymocytes,thymocytes; wild-type littermates,displayed enhanced proliferation
same,IL-6 concentration in serum,mice; MyD88 knockout mice,neither TNF-α nor IL-6 concentration increased
same,TNF-α concentration in serum,mice; MyD88 knockout mice,neither TNF-α nor IL-6 concentration increased
same,"increase of mRNA expression of acute phase proteins (SAA-I, SAP, HP) in liver",mice; MyD88 knockout mice,not observed in MyD88 knockout mice
same,"increase of mRNA expression of acute phase proteins (SAA-I, SAP, HP) in liver",mice; wild-type littermates,increase of induction was observed in wild-type mice
same,IL-6 concentration in serum,mice; wild-type mice,TNF-α and IL-6 concentrations increased
same,TNF-α concentration in serum,mice; wild-type mice,TNF-α and IL-6 concentrations increased
"IL-18: IL-18 (Hayashibara Biochemical Laboratories, Inc.), cytokine",increase in AP-1 activity,AP-1,3- to 4 fold
same,lytic activity to YAC-1 targeting cells,YAC-1 targeting cells; splenic cells of MyD88 knockout mice,not enhanced
same,lytic activity to YAC-1 targeting cells,YAC-1 targeting cells; splenic cells of wild-type mice,dramatically enhanced
same,production of IFN-γ,splenic T cells; splenic cells / T cells of MyD88 knockout mice,production of IFN-γ was not observed; also recorded: cannot enhance IL-18-responsive production of IFNγ; also recorded: could not be enhanced
same,production of IFN-γ,splenic T cells; splenic cells / T cells of wild-type mice,production of IFN-γ was induced; also recorded: high level of IFN-γ production in response to IL-18 was observed
same,NF-κB DNA binding activity / NF-κB activation,NF-κB; [4],detected in the nuclear extracts from wild-type cells
same,JNK activation,JNK; MyD88-deficient cells,IL-18-induced JNK activation was not observed
same,JNK activation,JNK; Th1-developing cells of wild-type mice,induced JNK activation
TNF-α,NF-κB DNA binding activity / NF-κB activation,NF-κB; nuclear extracts of MyD88-deficient cells,almost the same levels of NF-κB DNA binding activity
same,NF-κB DNA binding activity / NF-κB activation,NF-κB; [4],almost the same levels of NF-κB DNA binding activity
same,JNK activation,JNK; MyD88-deficient cells,normal activation of JNK was observed
lipid A,production of TNF-α,peritoneal macrophages [1],produced IL-6 and TNF-α
same,production of TNF-α,"peritoneal macrophages [1]; peritoneal macrophages of TLR4-deficient mice, 24 hours",produced neither IL-6 nor TNF-α
same,production of IL-6,peritoneal macrophages [2]; [5],produced IL-6 and TNF-α
same,production of NO2^−,peritoneal macrophages [2]; [5],production of NO2^− was confirmed
same,production of IL-6,peritoneal macrophages [2]; peritoneal macrophages of TLR4 knockout mice,produced neither IL-6 nor TNF-α
same,production of IL-6,peritoneal macrophages [2]; [6],produced IL-6 and TNF-α
same,production of NO2^−,peritoneal macrophages [2]; [6],production of NO2^− was confirmed
B1,expression of I-A^b molecule,splenic B cells; splenic B cells of MyD88-deficient mice,showed same reaction as those of wild-type mice
same,expression of I-A^b molecule,splenic B cells; splenic B cells of TLR2 knockout mice,normal expression of I-A^b molecule
same,expression of I-A^b molecule,splenic B cells; splenic B cells of TLR4-deficient mice,showed same reaction as those of wild-type mice; also recorded: normal expression of I-A^b molecule
B2,expression of I-A^b molecule in peritoneal macrophages,peritoneal macrophages [3],"comparative among wild-type, MyD88- and TLR4-deficient mice"
